We go through three compounds from patent US20260217701A1, “SELECTIVE BET INHIBITORS AND USES THEREOF” (Tay Therapeutics Limited, priority 2022, published 2026).

For one data set, the system named is BET BD2. The conditions noted are these: public sources, not a head-to-head trial, cited from earlier work.
The test system of data set [1] is goblet cells in gastrointestinal villi. The conditions noted are these: at 28 days; Faivre et al.; not head-to-head; cited from earlier work.
In another data set the target is IL-17A (Homo sapiens, UniProt Q16552). To be noted: from FDA pharmacology review / corporate presentation; read-out: reported IC50 for IL-17A; cited from earlier work.
IL-17A, sequence (Q16552 24-155): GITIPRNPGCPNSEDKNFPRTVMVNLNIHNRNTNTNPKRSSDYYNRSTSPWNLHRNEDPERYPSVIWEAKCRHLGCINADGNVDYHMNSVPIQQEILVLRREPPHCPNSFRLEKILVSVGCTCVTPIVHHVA
Data set [2] is described as follows: SLE (lupus) model: body weight. Format: in vivo, MRL/MpJ-Faslpr mice. The conditions noted are these: for Mean Body Weight: Cyclophosphamide 50 mg/kg IP once a week. On the procedure: (§1) Female MRL/MpJ-Faslpr mice (The Jackson Laboratory) were used to assess the efficacy of Compound A in treating lupus. Starting when animals were 10 weeks of age, protein concentration in urine was measured using urine dipsticks.
(§2) At the start of the study, each group in the study had two animals that were 9 weeks old, and all others were 10 weeks old. Dosing of all animals with the test compounds began when the older animals were 11 weeks old. […] […] Dosing was at a consistent time each dosing day throughout the study.
(§3) Compound A may be formulated as illustrated in Experimental Method A (see Table 2E.). […] A stock solution of Compound A in DMSO (stock solution concentration of Compound A of 40 mg/mL) was prepared and aliquots for weekly preparations were frozen at −20° C. On each preparation day, a stock solution aliquot was thawed and diluted with other vehicle components to the desired concentration. Formulated Compound A and vehicle were at room temperature for dosing.
(§4) The study began when the older animals were 11 weeks old, and concluded when the older animals were 19 weeks old. Body weight was recorded once a week, with the exception of two weight measurements taken the first week of the study (when the older animals were 11 weeks old). Proteinuria was measured in the urine of animals with urine dipsticks once a week, starting when the older animals were 10 weeks old. […] Blood samples were taken retro-orbitally at the start of the study to establish a baseline (15 animals, 3 per group), and when the older animals were 16 weeks (all animals) and when animals were 19 weeks (all animals) at the conclusion of the study. Blood urea nitrogen (BUN) was measured in all animals at study termination in blood samples. After blood collection, animals were euthanized, perfused with PBS, and the left kidneys were collected and weighed and fixed in 10% buffered formalin. Left kidneys were then processed to a formalin-fixed, paraffin-embedded (FFPE) block, and histology was analyzed in Periodic Acid-Schiff-stained sections (1 section per slide), using the criteria described in Alperovich et al., Lupus, 16:18-24 (2007). Right kidneys were weighed and snap-frozen at −80° C. Spleens were also collected and weighed. SLE in animals treated with a BET inhibitor and vehicle.

The subject of data set [3] is lupus. The data set is described as follows: SLE (lupus) model: proteinuria scores. It counts as in vivo, MRL/MpJ-Faslpr mice. To be noted: Cyclophosphamide 50 mg/kg IP once a week. On the procedure: as §1, §2, §3, §4
Data set [4] deals with lupus. The data set is described as follows: SLE (lupus) model: kidney histology lesion scores. Format: in vivo, MRL/MpJ-Faslpr mice. The conditions noted are these: Week 19. The protocol:
as §1, §2, §3, §4

The subject of data set [5] is lupus. The data set is described as follows: SLE (lupus) model: kidney and spleen weight. Format: in vivo, MRL/MpJ-Faslpr mice. To be noted: Week 19. On the procedure: as §1, §2, §3, §4
Data set [6] concerns lupus. The data set is described as follows: SLE (lupus) model: blood urea nitrogen (BUN) in serum. Format: in vivo, MRL/MpJ-Faslpr mice. To be noted: Cyclophosphamide 50 mg/kg IP once a week; Week 19. On the procedure: as §1
At the start of the study, each group in the study had two animals that were 9 weeks old, and all others were 10 weeks old. Dosing of all animals with the test compounds began when the older animals were 11 weeks old. Starting on Day 1, in Groups 1-4, vehicle or Compound A was administered per os (PO) […] (QD) as described above in Table 33. […] Dosing was at a consistent time each dosing day throughout the study.
as §3, §4
BUN provides important information about how well kidneys are working. A BUN test measures the amount of urea nitrogen in the blood and indicates how much urea has been processed by the kidneys and is indicative of renal competency. Urea is a waste product that is excreted in urine.

In a further data set the test system is anti-dsDNA antibodies. The data set is described as follows: SLE (lupus) model: anti-dsDNA antibodies in serum by ELISA. The conditions noted are these: for Anti-dsDNA Antibodies in serum, mean: Cyclophosphamide 50 mg/kg IP once a week. It counts as in vivo, MRL/MpJ-Faslpr mice. The protocol:
as §1, §2, §3, §4
Anti-dsDNA antibody test measures the amount of antibody to double-stranded deoxyribonucleic acid (anti-dsDNA) that may be present in the blood. Anti-dsDNA antibodies are highly specific markers of SLE as these antibodies are not thought to be present in other kinds of autoimmune disorder.

[7] abbreviates: Cyclophosphamide 50 mg/kg IP once a week.

For `CCS(=O)(=O)Nc1ccc(Oc2ccc(F)cc2F)c(-c2cn(C)c(=O)c3[nH]ccc23)c1` [ABBV-075], in the data set with BET BD2 (comparator BET inhibitors), the BD2 was 13 nM. In the data set with BET BD2 (nanoBRET assay, comparator), the “Selectivity (BD1/BD2)” value is listed as 2.6x. The “Effect on goblet cells in gastrointestinal villi” value in data set [1] is reported as “depleted goblet cells”.
For DC-806 [reference compound], on IL-17A, the IC50 was 5.7 nM.
In the case of `O=P1(N(CCCl)CCCl)NCCCO1` (stereo not drawn) [Cyclophosphamide, cyclophosphamide, reference compound], the Mean Body Weight is 35.0 g in [2] (Week 11); 36.2 g in [2] (Week 12); 36.1 g in data set [2] (Week 13); 37.2 g in data set [2] (Week 14); 37.5 g in data set [2] (Week 15); 38.6 g in data set [2] (Week 16). The Mean Body Weight is 38.6 g in [2] (Week 17), 38.9 g in data set [2] (Week 18) and 39.1 g in data set [2] (Week 19). In addition, the “Relative end body weight (% of Week 11) ± SEM” value in [2] (Cyclophosphamide group) is on record as 111.8% ± 1.7%. The Mean proteinuria score in the data set on lupus [3] (Week 10) is 2.00; in the data set with lupus [3] (Week 11) it was 2.05±; in the data set on lupus [3] (Week 12) it was 2.10; with lupus [3] (Week 13), 2.35; in the data set with lupus [3] (Week 14), 2.35; in the data set with lupus [3] (Week 15), 2.25. The Mean proteinuria score in the data set on lupus [3] (Week 16) amounted to 1.85; with lupus [3] (Week 17) it was 2.05; with lupus [3] (Week 18), 2.10; in the data set with lupus [3] (Week 19), 2.25. For the same compound, the “End proteinuria score ± SEM” value in the data set with lupus [3] (end of study (Week 19)) is on record as 2.25 ± 0.13. The “Total Glomerular Lesion (mean score)” value with lupus [4] (setting [7]) came out at 0.3. In addition, the “Total Glomerular Lesion (table title: Mean Total Kidney Lesion Scores)” value in the data set on lupus [4] (setting [7]) is listed as 0.6. For the same compound, the “Total Tubular and Interstitial Lesion (mean score)” value with lupus [4] (setting [7]) is reported as 0.3. Further, the “Mean total glomerular lesion score” value with lupus [4] (cyclophosphamide group) was found to be 0.3. In addition, the “Mean total kidney lesion score” value in the data set with lupus [4] (cyclophosphamide group) was “about 0.6”. Besides, the “Mean total tubular and interstitial lesion score” value in the data set on lupus [4] (cyclophosphamide group) is “about 0.3”. Further, the “Mean Kidney Weight” value in the data set with lupus [5] (setting [7]) was found to be 191 mg. In addition, the “Mean Spleen Weight” value with lupus [5] (setting [7]) is on record as 116 mg. In the data set with lupus [5] (Compound A (10 mg/kg) and cyclophosphamide groups), the “Kidney weights relative to controls” value is on record as “slightly decreased kidney weights”. Further, the “Spleen weights relative to vehicle controls” value with lupus [5] (Compound A (all tested doses) and cyclophosphamide) is recorded as “decreased spleen weights”. For the same compound, the BUN serum concentration in the data set with lupus [6] is listed as 11.0 mg/dL. For the same compound, the “Anti-dsDNA Antibodies in serum, mean” value is given as 28 units/mL with anti-dsDNA antibodies (Week 16) and 23 units/mL with anti-dsDNA antibodies (Week 19). Moreover, the “Anti-dsDNA antibodies in serum versus Vehicle group” value in the data set on anti-dsDNA antibodies (Week 16 and Week 19, Compound A (10 mg/mL) and Cyclophosphamide) is listed as “effective in reducing levels to well below that seen with the Vehicle administered group”.
